Assay results taken from patent US12109214B2, “Formulation and treatment methods” (PRODRUGXTEND PTY LTD, priority 2015, dated 2024).

How the values were obtained:
[1] = system: Escherichia coli, Enterococcus faecalis and Bacteroides thetaiotamicron; assay: Bacterial conversion to thioguanine nucleotides (6-TGN) in vitro; assay type: in vitro ADME; details: log phase cultures of all three strains, 1 mM, 120 minutes
Experimental: Bacterial metabolism of 6-TG was investigated in vitro using the representative gut bacteria Escherichia coli, Enterococcus faecalis and Bacteroides thetaiotamicron. […] In contrast, generation of 6-TGN was minimal over this time period when cultures were incubated with 1 mM 6-MP.

DSS induced colitis = assay: 6-MP in DSS induced colitis over one month; assay type: in vivo, mice; details: large doses of 6-MP
From the text: This discovery was particularly unexpected as these mice lack the ability to form TGNs (the active metabolites) through the conventional metabolic route in the liver and leukocytes. However, formation of the active metabolite was discovered outside the generally understood mechanism. The magnitude of the reduction in disease activity was similar to that found in wild-type mice in which colitis had been induced with DSS. […] Conversion of the related thiopurine, 6-MP, to 6-TGTP was considerably less over the same period consistent with rate-limiting IMPDH in the purine salvage pathway of bacteria.

[2] = system: Salmonella typhimurium (SL1344) in HeLa cells; assay: Bacterial replication assay
[3] = system: Winnie mice (spontaneous colitis); assay: Spontaneous colitis in Winnie mice, low dose gavage 28 days; assay type: in vivo
From the text: (§1) The vehicle control was water.

[4] = system: Winnie mice (spontaneous colitis); assay: Spontaneous colitis in Winnie mice, daily gavage up to 14 days; assay type: in vivo
From the text: as §1
Both the colitis and its improvement with treatment [FIGS. 2A and 2(B)] were more marked in the distal colon (DC) of the Winnie mice.

[5] = system: C57B1/6 WT mice (chronic DSS induced colitis); assay: Chronic DSS-induced colitis in C57Bl/6 WT mice; assay type: in vivo
Experimental: as §1
Dextran sodium sulphate (DSS) (36-50 kDa; MP Biochemicals) was administered in the drinking water chronically [0.5% (w/v) for 4 cycles of 5 days on, followed by either 7 or 9 days off].

[6] = system: Winnie mice (spontaneous colitis)
Experimental: All the animal experiments were approved by the University of Queensland Animal Ethics Committee. C57B1/6 wild-type (WT) mice were purchased from the Animal Resource Authority, Western Australia and the Hprt^−/−, Winnie and RaW were bred in-house in a pathogen free animal facility. […] 6-MP (MW 170, 6-MP monohydrate, ex Sigma-Aldrich) was dissolved in water. The vehicle control was water.
For DSS induced colitis in Hprt^−/− mice the composite disease activity index (DAI) score was used and this comprised diarrhoea, rectal bleeding and body weight percent loss subscores (0<1% loss; 1=1-5% loss; 2=5-15% loss; 3>15% loss).

[7] = system: HeLa cells expressing LC3-GFP infected with SL1344; assay: Antibacterial autophagy assay; assay type: cell-based; details: 6-TG 50 μM
Experimental: Briefly HeLa cells were plated in 12-well plates containing 18 mm glass coverslips at a density of 1×10^5 cells per well in DMEM 24 hours before infections. Cells were treated with TG or mock treated with DMSO for 16 hours prior to infection. S. enterica serovar Typhimurium SL1344 carrying a DsRed2 expression plasmid was grown overnight in Luria-Bertani broth containing 100 μg/mL carbenicillin at 37° C. with aeration and subcultured at a dilution of 1/33 for a further 3 h in Luria-Bertani carbenicillin broth. This culture was further diluted in DMEM 10% serum without antibiotics to yield a multiplicity of infection (MOI) of 100 and added to HeLa LC3-GFP cells. Infections were allowed to proceed for 20 minutes and the cells were washed once in complete medium containing 100 μg/mL gentamicin sulfate and then incubated in fresh high gentamicin medium for an additional 40 minutes. […] Slides were viewed for counting under wide-field fluorescence illumination with a 60× lens (Olympus). The fraction of LC3-GFP-positive bacteria per cell was assessed in randomly chosen fields with at least 90 cells counted for each condition. Bacteria were scored as within autophagosomes only when a complete and closely conforming LC3-GFP “capsule” was visible.

RaW and Winnie mice = assay: Colitis in Winnie and RaW (Rag-/- x Winnie) mice; assay type: in vivo
From the text: as §1
T and B lymphocytes are not required for the occurrence of spontaneous colitis in Winnie mice. Winnie x Rag^−/− (RaW) mice are Winnie mice that lack T and B lymphocytes. RaW mice spontaneously develop a colitis phenotype with more proximal disease than Winnie [Eri, R D et al; Mucosal. Immunol. 4, 354-364 (2011)].

[8] = system: Hprt−/− mice (DSS induced colitis); assay: Chronic DSS induced colitis in Hprt-/- mice
[9] = system: primary fibroblasts isolated from WT and Hprt−/− mice; assay: Autophagy (LC3-II/β-actin) in primary fibroblasts; assay type: cell-based
Experimental: HeLa, HCT116, HT29, HepG2 and RAW cells were obtained from ATCC and grown in DMEM supplemented with GlutaMAX (Life Technologies), 10% fetal calf serum and 20 μg/ml penicillin/streptomycin. HeLa cells stably expressing LC3-GFP have been described previously (Kabeya Y et al., The EMBO Journal, 2000, 19 (2), 5720-5728; Birmingham C L et al, J. Biol. Chem., 2006, 281 (16), […]). Primary fibroblasts isolated from WT and Hprt^−/− mice were generated from ear punch samples after dissociation with trypsin and cultured in DMEM supplemented with Glutamax and 20% fetal calf serum with antibiotics and passaged up to four times to ensure that they were axenic.
Following treatment cells were treated with TNN (Tris-HCl, NaCl, NP40) lysis buffer. […] Following transfer to PVDF membranes (Invitrogen), detection was performed using rabbit anti-LC3 primary (Sigma), mouse anti-Actin (Sigma) and appropriate fluorescent secondary antibodies (LI-COR Biosciences) and imaged on a LICOR fluorescent imaging system.

[10] = WT mice 0.5% DSS, 6-TG 0.5 mg/kg gavage 28 days
[11] = PC and DC of RaW mice and Winnie controls, 6-TG 2.5 mg/kg
[12] = RaW and Winnie mice, 6-TG 2.5 mg/kg up to 14 days

Structure (SMILES): Sc1ncnc2nc[nH]c12 [Formulation 6-MP, 3,7-dihydropurine-6-thione]
- 6-TGN (6-TGMP, 6-TGDP and 6-TGTP) generation in bacterial pellets [1]: minimal
- colitis (DSS induced colitis): no reduction in colitis

Structure (SMILES): Nc1nc2nc[nH]c2c(=S)[nH]1 [Formulation 6-TG, 2-amino-6,7-dihydro-3H-purine-6-thione]
- intracellular replication of the bacteria (luminescence) ([2]; HeLa cells, 50 or 100 μM 6-TG, 12 h post infection): significantly decreased intracellular replication
- bacterial growth (OD 600 absorbance) ([2]; over the 12 h period): did not alter bacterial growth
- blinded histological colitis scores PC and DC ([3]; 6-TG 0.5 mg/kg/d): improved blinded histological colitis scores in both PC and DC
- combined diarrhoea (diarrhoea and rectal bleeding) score ([3]; 6-TG 0.5 mg/kg/d or 6-MP 2.5 mg/kg/d): improved with 6-TG
- peripheral blood leukocytes ([3]; 6-TG 0.5 mg/kg/d or 6-MP 2.5 mg/kg/d, P=0.09): tended to reduce peripheral blood leukocytes
- spontaneous colitis (histological colitis) ([4]; 6-TG 1-2.5 mg/kg daily gavage up to 14 days): ameliorated the spontaneous colitis in a dose-dependent manner
- pharmacodynamic effect (time to improved colonic histology) ([4]; oral and intra-rectal TG, 1 or 2.5 mg/kg/day): less than two weeks
- DSS colitis, total colitis scores, immune and epithelial damage subscores [5, 10]: improved with 6-TG
- colon weight [5, 10]: significantly improved
- combined diarrhoea score [5, 10]: significantly improved
- peripheral white blood cells ([5]; WT mice DSS-treated and untreated, 6-TG 0.5 mg/kg gavage 28 days): decreased peripheral white blood cells
- body weight gain ([5]; juvenile C57B1/6 WT mice, irrespective of DSS, 6-TG 0.5 mg/kg): reduction of expected body weight gain
- colitis in mid-colon or proximal colon ([6]; intra-rectal 1 mg/kg daily 14 days): no improvement
- blinded histological scoring of the distal colon ([6]; intra-rectal 1 mg/kg daily 14 days, P<0.01): striking improvement
- combined diarrhea score ([6]; intra-rectal 1 mg/kg daily, from day 11, vs 6-MP and vehicle): statistically significant improvement
- LC3 co-localization with intracellular bacteria [7]: significantly increased LC3 co-localization
- Muc2 expression (RaW and Winnie mice; [11]): increased Muc2 expression
- inflammation (Ifn-γ, Il-1b) (RaW and Winnie mice; [11]): decreased inflammation
- blinded histological PC and DC colitis scores (RaW and Winnie mice; [12]): improved blinded histological PC and DC colitis scores
- goblet cell morphology (RaW and Winnie mice; [12]): restored goblet cell morphology
- 6-TGN (6-TGMP, 6-TGDP and 6-TGTP) generation in bacterial pellets [1]: found in the bacterial pellets
- disease activity ([8]; Hprt−/− mice, 0.5% DSS, 6-TG 0.5 mg/kg oral gavage day 28 to 52): rapid and appreciable reduction in disease activity
- immunosuppression ([8]; Hprt−/− mice, 6-TG 0.5 mg/kg oral gavage): not associated with immunosuppression
- MLN cell counts ([8]; Hprt−/− mice, DSS, 6-TG 0.5 mg/kg): not depressed by 6-TG
- CD3e+CD4+, CD11b+ and CD11c+MHCII+ subset numbers in the MLN ([8]; untreated or DSS exposed Hprt−/− mice, 6-TG 0.5 mg/kg): not decreased

Structure (SMILES): CCC(=O)N1CCN(c2ccc(-n3c(=O)ccc4cnc5ccc(-c6cnc7ccccc7c6)cc5c43)cc2C(F)(F)F)CC1 [Torin1]
- autophagy induction [9]: autophagy could be induced
